# Literature values in patent publication US20100087475A1, “PHARMACEUTICAL COMPOUNDS” (Biovali Laboratories International (Barbados) S.R.L., priority 2008, published 2010).
# Molecular target: VMAT2 (Homo sapiens, UniProt Q05940)
# Conditions: Erickson et al. (1996); cited from earlier work
# Sequence of VMAT2 (Q05940 whole entry): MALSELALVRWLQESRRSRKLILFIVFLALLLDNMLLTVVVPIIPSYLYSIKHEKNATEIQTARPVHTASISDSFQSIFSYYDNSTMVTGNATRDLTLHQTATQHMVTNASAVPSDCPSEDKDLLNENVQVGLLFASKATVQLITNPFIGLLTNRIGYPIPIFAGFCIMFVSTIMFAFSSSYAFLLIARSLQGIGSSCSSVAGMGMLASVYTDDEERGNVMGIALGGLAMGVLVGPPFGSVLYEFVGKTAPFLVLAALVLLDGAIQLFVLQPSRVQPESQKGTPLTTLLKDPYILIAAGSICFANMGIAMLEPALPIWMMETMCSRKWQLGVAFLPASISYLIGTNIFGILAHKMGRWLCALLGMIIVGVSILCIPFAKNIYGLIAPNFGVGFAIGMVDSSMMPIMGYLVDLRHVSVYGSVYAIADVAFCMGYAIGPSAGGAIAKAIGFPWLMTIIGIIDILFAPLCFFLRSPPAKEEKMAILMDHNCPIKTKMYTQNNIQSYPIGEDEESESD
smiles,measurement,value
"COc1cc2c(cc1OC)C1CC(=O)C(CC(C)C)CN1CC2 (stereo not shown) [tetrabenazine, 1,3,4,6,7,11b-hexahydro-9,10-dimethoxy-3-(2-methylpropyl)-2H-benzo(a)quinolizin-2-one]",affinity for VMAT2 in comparison to VMAT1,≥ 200 fold
